Measurements reported in ChEMBL document CHEMBL3608254, “Discovery of novel triazolobenzazepinones as γ-secretase modulators with central Aβ42 lowering in rodents and rhesus monkeys” (Bioorg Med Chem Lett, 2015).
Activity calls are given as the source filed them. The calls are words filed in the database; no cut-off is given here.

Legend:
Mus musculus = assay: Antialzheimer's disease activity in po dosed APP-YAC transgenic mouse assessed as reduction of amyloid beta-40/42 level in brain measured after 6 hrs; type: functional
[1] = Inhibition of gamma-secretase-mediated cleavage of NotchdeltaE in human HeLa cells expressing NotchdeltaE assessed as intracellular release of Notch intracellular domain (NICD)/N-terminal luciferase by luminescent method; type: cell-based
Gamma-secretase [2] = assay: Inhibition of gamma-secretase in human SH-SY5Y cells expressing beta-APP C-terminal fragment SPA4CT assessed as decrease of amyloid beta-40 level by electrochemiluminescent method; type: cell-based
[3] = Half life in rat liver microsomes; type: ADME
Gamma-secretase [4] = assay: Inhibition of gamma-secretase in human SH-SY5Y cells expressing beta-APP C-terminal fragment SPA4CT assessed as decrease of amyloid beta-42 level by electrochemiluminescent method; type: cell-based
[5] = molecular target: Voltage-gated inwardly rectifying potassium channel KCNH2 (Homo sapiens, UniProt Q12809)
Description: Binding affinity to human ERG expressed in HEK cells by MK-499 radioligand displacement assay

Rattus norvegicus = assay: Antialzheimer's disease activity in po dosed Sprague-Dawley rat assessed as reduction of amyloid beta-40/42 level in brain measured after 6 hrs; type: functional
[6] = molecular target: Sodium-dependent serotonin transporter (Homo sapiens, UniProt P31645); assay: Inhibition of SERT (unknown origin)
Sodium-dependent serotonin transporter, sequence (P31645 whole entry, looked up): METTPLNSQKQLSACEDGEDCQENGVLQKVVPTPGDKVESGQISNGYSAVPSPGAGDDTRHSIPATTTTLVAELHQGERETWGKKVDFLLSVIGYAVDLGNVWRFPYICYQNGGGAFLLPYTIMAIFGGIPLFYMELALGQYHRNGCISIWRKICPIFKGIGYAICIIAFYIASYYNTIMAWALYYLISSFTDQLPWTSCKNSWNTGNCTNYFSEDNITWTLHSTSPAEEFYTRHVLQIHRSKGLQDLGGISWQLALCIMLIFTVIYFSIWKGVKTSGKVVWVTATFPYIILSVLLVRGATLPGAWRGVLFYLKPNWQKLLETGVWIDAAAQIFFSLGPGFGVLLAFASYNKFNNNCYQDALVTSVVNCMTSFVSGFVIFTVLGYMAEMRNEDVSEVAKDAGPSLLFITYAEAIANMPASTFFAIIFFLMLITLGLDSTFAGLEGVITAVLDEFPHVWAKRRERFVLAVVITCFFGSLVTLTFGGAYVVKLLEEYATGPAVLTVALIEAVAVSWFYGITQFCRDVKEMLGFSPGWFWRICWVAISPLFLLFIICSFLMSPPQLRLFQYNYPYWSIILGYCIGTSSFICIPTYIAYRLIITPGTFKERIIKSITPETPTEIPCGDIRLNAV

Voltage-gated inwardly rectifying potassium channel KCNH2, sequence (Q12809 whole entry): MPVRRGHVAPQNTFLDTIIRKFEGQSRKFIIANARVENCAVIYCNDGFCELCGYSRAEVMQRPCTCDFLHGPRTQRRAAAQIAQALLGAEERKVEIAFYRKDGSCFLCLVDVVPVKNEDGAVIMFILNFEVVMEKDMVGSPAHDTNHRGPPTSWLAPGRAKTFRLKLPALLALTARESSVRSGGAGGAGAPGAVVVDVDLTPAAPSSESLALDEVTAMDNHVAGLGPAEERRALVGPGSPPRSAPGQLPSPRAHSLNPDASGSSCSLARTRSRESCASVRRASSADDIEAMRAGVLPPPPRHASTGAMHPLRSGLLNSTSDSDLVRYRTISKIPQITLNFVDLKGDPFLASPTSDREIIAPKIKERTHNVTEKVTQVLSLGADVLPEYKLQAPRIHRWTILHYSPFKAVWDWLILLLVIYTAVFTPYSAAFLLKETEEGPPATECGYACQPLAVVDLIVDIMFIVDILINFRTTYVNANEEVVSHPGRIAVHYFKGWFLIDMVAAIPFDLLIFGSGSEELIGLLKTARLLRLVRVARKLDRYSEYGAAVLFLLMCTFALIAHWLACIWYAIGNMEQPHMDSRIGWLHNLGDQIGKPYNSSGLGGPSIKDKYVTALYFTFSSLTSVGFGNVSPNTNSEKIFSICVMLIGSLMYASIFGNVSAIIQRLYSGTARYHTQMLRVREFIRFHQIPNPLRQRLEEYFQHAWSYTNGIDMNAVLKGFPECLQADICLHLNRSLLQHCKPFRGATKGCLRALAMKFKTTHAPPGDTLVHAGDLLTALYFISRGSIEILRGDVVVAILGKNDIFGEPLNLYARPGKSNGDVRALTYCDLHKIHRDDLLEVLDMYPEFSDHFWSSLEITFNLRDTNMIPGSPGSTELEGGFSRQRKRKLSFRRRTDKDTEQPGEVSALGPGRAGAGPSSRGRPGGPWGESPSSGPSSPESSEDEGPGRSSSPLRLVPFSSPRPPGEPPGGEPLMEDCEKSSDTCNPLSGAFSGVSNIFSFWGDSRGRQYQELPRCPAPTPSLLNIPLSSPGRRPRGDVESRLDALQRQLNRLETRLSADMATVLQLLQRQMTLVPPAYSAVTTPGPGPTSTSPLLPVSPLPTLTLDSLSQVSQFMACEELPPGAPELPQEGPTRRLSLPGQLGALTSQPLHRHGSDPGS

SMILES: COc1cc(-c2cn([C@H]3C[C@H](C)c4ccccc4N(CC(F)(F)F)C3=O)nn2)ccc1-n1cnc(C)c1
- Activity (Mus musculus): Active
- IC50 [1]: 36600 nM
- IC50 (Gamma-secretase [2]): 170 nM
- half-life [3]: 72 min
- IC50 (Gamma-secretase [4]): 40 nM
- IC50 [5]: 6680 nM
- Activity (Rattus norvegicus): Active

SMILES: COc1cc(-c2cn(C3CCc4cccnc4N(CC(F)(F)F)C3=O)nn2)ccc1-n1cnc(C)c1 (centres undefined)
- Activity (Mus musculus): Active
- IC50 [1]: > 50000 nM
- IC50 (Gamma-secretase [2]): 1340 nM
- IC50 (Gamma-secretase [4]): 180 nM
- IC50 [5]: 8740 nM
- Activity (Rattus norvegicus): Active

SMILES: COc1cc(-c2cn(C3CCc4c(F)cc(F)cc4N(CC(F)(F)F)C3=O)nn2)ccc1-n1cnc(C)c1 (centres undefined)
- Activity (Mus musculus): Active
- IC50 [1]: > 50000 nM
- IC50 (Gamma-secretase [2]): 150 nM
- IC50 (Gamma-secretase [4]): 40 nM
- Activity (Rattus norvegicus): Active

SMILES: COc1cc(-c2cn(C3CC[C@@H]4CCCC[C@H]4N(Cc4ccccc4)C3=O)nn2)ccc1-n1cnc(C)c1 (some centres undefined)
- Activity (Mus musculus): Active
- IC50 [1]: > 50000 nM
- IC50 (Gamma-secretase [2]): 470 nM
- IC50 (Gamma-secretase [4]): 70 nM
- inhibition [6]: inactive
- Activity (Rattus norvegicus): Active

SMILES: COc1cc(-c2cn(C3CCc4ccccc4N(CC(F)(F)F)C3=O)nn2)ccc1-n1cnc(C)c1 (centres undefined)
- IC50 [1]: > 50000 nM
- IC50 (Gamma-secretase [2]): 320 nM
- half-life [3]: 35 min
- IC50 (Gamma-secretase [4]): 70 nM

SMILES: COc1cc(-c2cn(C3CCc4ccccc4N(Cc4cccnc4)C3=O)nn2)ccc1-n1cnc(C)c1 (racemic)
- IC50 [1]: > 50000 nM
- IC50 (Gamma-secretase [2]): 4690 nM
- IC50 (Gamma-secretase [4]): 880 nM

SMILES: COc1cc(-c2cn(C3(C)CCc4ccccc4N(CC(F)(F)F)C3=O)nn2)ccc1-n1cnc(C)c1 (centres undefined)
- Activity (Mus musculus): Active
- IC50 [1]: > 50000 nM
- IC50 (Gamma-secretase [2]): 6380 nM
- IC50 (Gamma-secretase [4]): 580 nM
- IC50 [5]: 6000 nM
- Activity (Rattus norvegicus): Active

SMILES: COc1cc(-c2cn(C3CCc4ccccc4N(CC(F)F)C3=O)nn2)ccc1-n1cnc(C)c1 (centres undefined)
- IC50 [1]: > 50000 nM
- IC50 (Gamma-secretase [2]): 700 nM
- IC50 (Gamma-secretase [4]): 150 nM

SMILES: COc1cc(-c2cn(C3CCc4c(ccc5ccccc45)N(CC(F)(F)F)C3=O)nn2)ccc1-n1cnc(C)c1 (centres undefined)
- Activity (Mus musculus): Active
- IC50 [1]: > 50000 nM
- IC50 (Gamma-secretase [2]): 70 nM
- IC50 (Gamma-secretase [4]): 30 nM
- Activity (Rattus norvegicus): Active

SMILES: COc1cc(-c2cn(C3CSc4ccccc4N(CC(F)(F)F)C3=O)nn2)ccc1-n1cnc(C)c1 (centres undefined)
- Activity (Mus musculus): Active
- IC50 [1]: 28400 nM
- IC50 (Gamma-secretase [2]): 240 nM
- IC50 (Gamma-secretase [4]): 60 nM
- IC50 [5]: 4750 nM
- Activity (Rattus norvegicus): Active

SMILES: COc1cc(-c2cn(C3CCc4ccccc4N(CC4(C)COC4)C3=O)nn2)ccc1-n1cnc(C)c1 (racemic)
- IC50 [1]: > 50000 nM
- IC50 (Gamma-secretase [2]): 7480 nM
- IC50 (Gamma-secretase [4]): 1250 nM
